“And” between values parts separate entries of the source, which are not always exact repeats. Equal values may be shown once.
Legend:
[1] = Solubility of complexes in isohexane at room temperature; assay type: physicochemical; conditions: room temperature (20° C.-25° C.); for Solubility in isohexane: cocrystallized solvent included in formula weight; for Solubility in isohexane (wt %): cocrystallized solvent included in mass
Protocol: General considerations: Solubility studies were performed using complexes that were isolated as crystalline or microcrystalline solids. […] Complex 3, embodying the present technological advancement, was cocrystallized with 0.6 equivalents of isohexane. Complex 4, embodying the present technological advancement, was cocrystallized with 0.5 equivalents of isohexane. Solvents used were sparged with nitrogen (30-60 minutes) and dried over 3 angstrom molecular sieves. Unless stated otherwise all measurements were performed at ambient temperature (20° C.-25° C.).
General procedure: A tared vial was loaded with a small amount of the complex (actual mass recorded, typically 5-30 mg). Then a small stir bar (8 mm) was added. Solvent was then added and the mixture was stirred rapidly (1000 rpm). […] This process was repeated until either a clear solution was obtained (no visible solids or murkiness) or the vial was full. As the mixture approached homogeneity (i.e., few remaining solids observed) the volume of the solvent additions was kept small (<1 mL) to minimize the overshooting of the solvent required to achieve homogeneity. The stir bar was then removed and the mass of the mixture was measured. If a clear solution had formed then the solubility of the complex was calculated based on the mass of complex and the amount of solvent added to achieve a homogeneous solution. If the mixture remained heterogeneous (visible solids or murky), then the value reported is given as being “less than” the calculated value. Formulas used to calculate solubility are listed below. Cocrystallized solvent is included in the mass and formula weights of the complexes. The density of isohexane used in the calculations was 0.672 g/ml, and the density of the complex was assumed to be 1.0 g/ml.
Solubility (in wt %)=[100]*[(weight of complex)/(weight of solution)]
Solubility (in mM)=[10^6]*[(grams of complex)/(formula wt. of complex in g/mol)]/[(grams of solvent)/(density of solvent in g/mL)]

[2] = Propylene polymerization, catalyst activity
Source text: Solutions of the pre-catalysts were made using toluene (ExxonMobil Chemical-anhydrous, stored under N2) (98%) or isohexane (ExxonMobil Chemical—polymerization grade, and purified as described below). Pre-catalyst solutions were typically 0.25 mmol/L.
Activation of the pre-catalysts was either by dimethylanilinium tetrakisperfluorophenylborate (Boulder Scientific or Albemarle Corp; Act ID=A) or (hydrogenated tallow alkyl)methylammonium tetrakis(pentafluorophenyl)borate supplied as a 10 wt % solution in methylcyclohexane (Boulder Scientific; Act ID=B). Activators were typically used as a 0.25 mmol/L solution in toluene or isohexane.
Tri-n-octylaluminum (TnOAl or TNOA, Neat, AkzoNobel) was also used as a scavenger prior to introduction of the activator and pre-catalyst into the reactor. TNOA was typically used as a 5 mmol/L solution in toluene or isohexane.
Polymerizations were conducted in an inert atmosphere (N2) drybox using autoclaves equipped with an external heater for temperature control, glass inserts (internal volume of 22.5 mL), septum inlets, regulated supply of nitrogen and propylene, and equipped with disposable PEEK mechanical stirrers (800 RPM). The autoclaves were prepared by purging with dry nitrogen at 110° C. or 115° C. for 5 hours and then at 25° C. for 5 hours.
The reactor was prepared as described above, then heated to 40° C., and then purged with propylene gas at atmospheric pressure. Toluene or isohexanes, liquid propylene (1.0 mL) and scavenger (TNOA, 0.5 μmol) were added via syringe. The reactor was then brought to process temperature (70° C. or 100° C.) while stirring at 800 RPM. The activator solution, followed by the pre-catalyst solution, were injected via syringe to the reactor at process conditions. Reactor temperature was monitored and typically maintained within +/−1° C. Polymerizations were halted by addition of approximately 50 psi compressed dry air gas mixture to the autoclaves for approximately 30 seconds. The polymerizations were quenched based on a predetermined pressure loss (maximum quench value) or for a maximum of 30 minutes. The reactors were cooled and vented. The polymers were isolated after the solvent was removed in-vacuo. The actual quench time (s) is reported as quench time (s). Yields reported include total weight of polymer and residual catalyst. […] Propylene homopolymerization examples are reported in Table 2 with additional characterization in Table 3.
Polymerization results are collected in Tables 2. “Ex #” stands for example number. Example numbers starting with a “C” are comparative examples. “Cat ID” identifies the pre-catalyst used in the experiment. Corresponding numbers identifying the pre-catalyst (also referred to as pre-catalyst, catalyst, complex or compound) are located in the synthetic experimental section. T (° C.) is the polymerization temperature which was typically maintained within +/−1° C. “Yield” is polymer yield, and is not corrected for catalyst residue. “Quench time (s)” is the actual duration of the polymerization run in seconds. For propylene homopolymerization runs, quench value indicates the maximum set pressure loss (conversion) of propylene during the polymerization. Activity is reported at grams polymer per mmol of catalyst per hour.
Activator A is N,N-dimethylanilinium tetrakis(pentafluorophenyl)borate activator and activator B is (hydrogenated tallow alkyl)methylammonium tetrakis(pentafluorophenyl)borate. When activator A was used, both the pre-catalyst and activator solutions were in toluene. When activator B was used, both pre-catalyst and activator solutions were in isohexane. Small amounts of methylcyclohexane (MCH) result from activator B being supplied by the manufacturer as a 10 wt % solution in methylcyclohexane.

[3] = Activator B ((hydrogenated tallow alkyl)methylammonium tetrakis(pentafluorophenyl)borate), T 100 °C, solutions in isohexane, no toluene
[4] = Activator B ((hydrogenated tallow alkyl)methylammonium tetrakis(pentafluorophenyl)borate), T 70 °C, solutions in isohexane, no toluene

Compound: CCCCOc1ccc2c(c1)-c1cc(C)cc(C34CC5CC(CC(C5)C3)C4)c1[O][Zr]([CH3])([CH3])[O]c1c(cc(C)cc1C13CC4CC(CC(C4)C1)C3)-c1cc(OCCCC)ccc1-c1cccc-2n1 [Complex 3]
- Solubility in isohexane [1]: 1.10 mM
- Solubility in isohexane (wt %) [1]: 0.168 wt %

Compound: CCCCOc1ccc2c(c1)-c1cc(C(C)(C)C)cc(C34CC5CC(CC(C5)C3)C4)c1[O][Zr]([CH3])([CH3])[O]c1c(cc(C(C)(C)C)cc1C13CC4CC(CC(C4)C1)C3)-c1cc(OCCCC)ccc1-c1cccc-2n1 [Complex 4]
- Solubility in isohexane [1]: 15.7 mM
- Solubility in isohexane (wt %) [1]: 2.55 wt %
- Activity (g P/mmol cat · hr) [2, 3]: 2,448,000 g P/mmol cat · hr and 2,638,800 g P/mmol cat · hr and 1,007,059 g P/mmol cat · hr

Compound: CCCCCCCCOc1ccc2c(c1)-c1cc(C(C)(C)C)cc(C34CC5CC(CC(C5)C3)C4)c1[O][Zr]([CH3])([CH3])[O]c1c(cc(C(C)(C)C)cc1C13CC4CC(CC(C4)C1)C3)-c1cc(OCCCCCCCC)ccc1-c1cccc-2n1 [Complex 5]
- Activity (g P/mmol cat · hr) ([2]; Activator A (N,N-dimethylanilinium tetrakis(pentafluorophenyl)borate), T 100 °C, catalyst and activator solutions in toluene): 3,376,421 g P/mmol cat · hr and 2,318,545 g P/mmol cat · hr and 2,591,040 g P/mmol cat · hr
- Activity (g P/mmol cat · hr) [2, 4]: 6,656,571 g P/mmol cat · hr and 5,844,800 g P/mmol cat · hr and 5,664,000 g P/mmol cat · hr
- Activity (g P/mmol cat · hr) [2, 3]: 2,700,444 g P/mmol cat · hr and 1,772,923 g P/mmol cat · hr and 2,571,840 g P/mmol cat · hr

Compound: CCCCCCCCCCCCOc1ccc2c(c1)-c1cc(C(C)(C)C)cc(C34CC5CC(CC(C5)C3)C4)c1[O][Zr]([CH3])([CH3])[O]c1c(cc(C(C)(C)C)cc1C13CC4CC(CC(C4)C1)C3)-c1cc(OCCCCCCCCCCCC)ccc1-c1cccc-2n1 [Complex 6]
- Activity (g P/mmol cat · hr) [2, 4]: 1,713,412 g P/mmol cat · hr and 1,940,093 g P/mmol cat · hr and 1,864,216 g P/mmol cat · hr

Compound: dimethylzirconium[2′,2′″-(pyridine-2,6-diyl)bis(3-adamantan-1-yl)-5-(tert-butyl)-[1,1′-biphenyl]-2-olate)] [Complex 2, reference compound]
- Activity (g P/mmol cat · hr) [2, 4]: 2,069,268 g P/mmol cat · hr and 4,201,200 g P/mmol cat · hr and 3,074,182 g P/mmol cat · hr
- Activity (g P/mmol cat · hr) [2, 3]: 2,345,000 g P/mmol cat · hr and 2,682,545 g P/mmol cat · hr and 2,225,032 g P/mmol cat · hr
